Experimental findings from patent US5279956A, “Activated protein C polypeptides and anti-peptide antibodies, diagnostic methods and systems for inhibiting activated protein C” (The Scripps Research Institute, priority 1991, dated 1994) are described below.

No end group written: not given here.

This experiment concerns the target T1, APC (Homo sapiens, UniProt P04070).
T1 construct: begins at amino acid residue position 158 and ends at 419; The light chain is 155 amino acid residues in length; tissue Factor IX concentrate from Immuno AG, Vienna; thrombin from Enzyme Research Laboratories
Briefly: APC-catalyzed inactivation of Factor Va, read out by Factor Va-prothrombinase assay. The class given is biochemical. How it is done:
FIG. 5 illustrates the APC-catalyzed inactivation of Factor Va in the presence of peptide-(390-404) and phospholipids. The assay was carried out in TBS-BSA and 2.5 mM CaCl2 at pH 7.4 as described in Example 5a5) using 0.25 nM APC, 10.0 nM Va, 50 μM phospholipid vesicles and 0 to 50 μM peptide-(390-404), that had been preincubated for 20 minutes at 22° C. with Factor Va. Factor Va inactivation by APC was indirectly determined using the cofactor activity of Factor Va in a prothrombinase assay as described in Example 5a5). Residual APC activity in the presence of the peptide was calculated from a standard curve.
The assay consisted of two parts wherein the APC catalyzed inactivation of Factor Va in the absence or presence of peptides was tested in the first part followed by the indirect determination of remaining Factor Va activity in a prothrombinase assay in the second part.
The APC catalyzed inactivation of Factor Va assays were performed in 96-well flat bottom ELISA plates (Stockwell Scientific, Walnut, Calif.). The reactions were performed either in the presence or absence of phospholipid vesicles to determine if peptide-(390-404) inhibited APC anticoagulant activity by inhibiting the binding of APC or its substrate to phospholipids or if it was independent of phospholipid surfaces. […]

T1 sequence (P04070 212-461): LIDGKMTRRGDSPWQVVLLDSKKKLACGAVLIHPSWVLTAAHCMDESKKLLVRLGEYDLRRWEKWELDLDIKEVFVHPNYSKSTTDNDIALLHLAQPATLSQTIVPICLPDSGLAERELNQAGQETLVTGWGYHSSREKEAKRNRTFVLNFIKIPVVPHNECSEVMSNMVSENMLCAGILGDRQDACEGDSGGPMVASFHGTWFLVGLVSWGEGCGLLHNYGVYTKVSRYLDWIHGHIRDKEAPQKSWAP
T1 sequence (P04070 43-197): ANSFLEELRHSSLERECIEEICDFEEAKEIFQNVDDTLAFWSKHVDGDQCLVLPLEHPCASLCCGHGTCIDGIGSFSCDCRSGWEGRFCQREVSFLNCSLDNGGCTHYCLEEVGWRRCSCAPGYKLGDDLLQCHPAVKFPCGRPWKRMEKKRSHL

As to “YGVYTKVSRYLDWIH-NH2 [peptide-(390-404), YGVYTKVSRYLDWIH]”, the IC50 (50 μM phospholipid vesicles, 0.25 nM APC, 10.0 nM Va, read-out: half-maximal inhibition of APC-catalyzed inactivation of Factor Va) amounted to 4 µM. Also, the “inhibition of APC activity” value (absence of phospholipids, 5 nM APC, 40 nM Va, 50 μM peptide) is listed as 94%.
